Drawing on patent US8492395B2, “7-substituted quinazolinone compounds and compositions comprising the same” (Celgene Corporation, priority 2007, dated 2013), this text covers EC50, IC50 and melting point for eight compounds.

In one data set the test system is IL-2. As to the kind of experiment: IL-2 production by T cells (anti-CD3 stimulated, ELISA). It is filed as cell-based. To be noted: T-cell, one collective range stated for the tested compounds, read-out: EC50 values for stimulating the production of IL-2. As for the experimental part:
5.48.2 […] and MIP-3α Production by T Cells
PBMC are depleted of adherent monocytes by placing 1×10^8 PBMC in 10 ml complete medium (RPMI 1640 supplemented with 10% heat-inactivated fetal bovine serum, 2 mM L-glutamine, 100 U/ml penicillin, and 100 μg/ml streptomycin) per 10 cm tissue culture dish, in 37° C., 5% CO2 incubator for 30-60 minutes. The dish is rinsed with medium to remove all non-adherent PBMC. T cells are purified by negative selection using the following antibody (Pharmingen) and Dynabead (Dynal) mixture for every 1×10^8 non-adherent PBMC: 0.3 ml Sheep anti-mouse IgG beads, 15 μl anti-CD16, 15 μl anti-CD33, 15 μl anti-CD56, 0.23 ml anti-CD19 beads, 0.23 ml anti-HLA class II beads, and 56 μl anti-CD14 beads. The cells and bead/antibody mixture is rotated end-over-end for 30-60 minutes at 4° C. Purified T cells are removed from beads using a Dynal magnet. Typical yield is about 50% T cells, 87-95% CD3^+ by flow cytometry.
Tissue culture 96-well flat-bottom plates are coated with anti-CD3 antibody OKT3 at 5 μg/ml in PBS, 100 μl per well, incubated at 37° C. for 3-6 hours, then washed four times with complete medium 100 μl/well just before T cells are added. Compounds are diluted to 20 times of final in a round bottom tissue culture 96-well plate. Final concentrations are about 10 μM to about 0.00064 μM. A 10 mM stock of compounds provided herein is diluted 1:50 in complete for the first 20× dilution of 200 μM in 2% DMSO and serially diluted 1:5 into 2% DMSO. Compound is added at 10 μl per 200 μl culture, to give a final DMSO concentration of 0.1%. Cultures are incubated at 37° C., 5% CO2 for 2-3 days, and supernatants analyzed for IL-2 and MIP-3α by ELISA (R&D Systems). IL-2 and MIP-3 cc levels are normalized to the amount produced in the presence of an amount of a compound provided herein, and EC50s calculated using non-linear regression, sigmoidal dose-response, constraining the top to 100% and bottom to 0%, allowing variable slope (GraphPad Prism v3.02).
Abilities of certain compounds for stimulating the production of IL-2 were determined using procedures substantially similar to those described in Section 5.48.2, above.

In another data set the test system is Namalwa AG4 cells. Put plainly: Cell proliferation assay (3H-thymidine incorporation). Type of data set: cell-based. To be noted: one collective range stated for the tested compounds, read-out: IC50 values for inhibiting proliferation of Namalwa AG4 cells. As for the experimental part: 5.48.3 Cell Proliferation Assay
Cell lines Namalwa, MUTZ-5, and UT-7 are obtained from the Deutsche Sammlung von Mikroorganismen und Zellkulturen GmbH (Braunschweig, Germany). The cell line KG-1 is obtained from the American Type Culture Collection (Manassas, Va., USA). Cell proliferation as indicated by ^3H-thymidine incorporation is measured in all cell lines as follows.
Cells are plated in 96-well plates at 6000 cells per well in media. The cells are pre-treated with compounds at about 100, 10, 1, 0.1, 0.01, 0.001, 0.0001 and 0 μM in a final concentration of about 0.25% DMSO in triplicate at 37° C. in a humidified incubator at 5% CO2 for 72 hours. One microcurie of 3H-thymidine (Amersham) is then added to each well, and cells are incubated again at 37° C. in a humidified incubator at 5% CO2 for 6 hours. The cells are harvested onto UniFilter GF/C filter plates (Perkin Elmer) using a cell harvester (Tomtec), and the plates are allowed to dry overnight. Microscint 20 (Packard) (25 μl/well) is added, and plates are analyzed in TopCount NXT (Packard). Each well is counted for one minute. Percent inhibition of cell proliferation is calculated by averaging all triplicates and normalizing to the DMSO control (0% inhibition). Each compound is tested in each cell line in three separate experiments. Final IC50s are calculated using non-linear regression, sigmoidal dose-response, constraining the top to 100% and bottom to 0%, allowing variable slope. (GraphPad Prism v3.02).
Abilities of certain compounds for inhibiting proliferation of Namalwa AG4 cells were determined using procedures substantially similar to those described in Section 5.48.3, above.
(In general: Dividing cells build labelled thymidine or BrdU into new DNA.)

As for `Cc1nc2ccc(CNC(=O)Nc3ccc(OC(F)(F)F)cc3)cc2c(=O)n1C1CCC(=O)NC1=O` (centres unmarked) [1-[3-(2,6-dioxo-piperidin-3-yl)-2-methyl-4-oxo-3,4-dihydro-quinazolin-6-ylmethyl]-3-(4-trifluoromethoxy-phenyl)-urea], the melting point (usually the temperature, or range, at which the solid turns liquid) was in the range of 201 to 203 °C. For the same compound, in the data set with IL-2, the EC50 (in general, the concentration needed to bring the measured effect to its halfway point) lay in the range of 100 to 3500 nM. In addition, the IC50 in the data set with Namalwa AG4 cells was 10 to 5500 nM.

In turn, `CCCCCCNC(=O)NCc1ccc2nc(C)n(C3CCC(=O)NC3=O)c(=O)c2c1` (centres unmarked) [1-[3-(2,6-dioxo-piperidin-3-yl)-2-methyl-4-oxo-3,4-dihydro-quinazolin-6-ylmethyl]-3-hexyl-urea] had a melting point of 220 to 222 °C. Further, the EC50 in the data set with IL-2 lay within 100 to 3500 nM. Besides, in the data set on Namalwa AG4 cells, the IC50 fell in the range of 10 to 5500 nM.

On to `Cc1nc2ccc(N)cc2c(=O)n1C1CCC(=O)NC1=O` (centres unmarked) [3-(6-amino-2-methyl-4-oxo-4H-quinazolin-3-yl)-piperidine-2,6-dione], for which the EC50 with IL-2 fell in the range of 100 to 3500 nM. In addition, in the data set with Namalwa AG4 cells, the IC50 lay in the range of 10 to 5500 nM.

In turn, `Cc1nc2ccc(O)cc2c(=O)n1C1CCC(=O)NC1=O` (centres unmarked) [3-(6-hydroxy-2-methyl-4-oxo-4H-quinazolin-3-yl)-piperidine-2,6-dione] gave a melting point of 315 to 317 °C. For the same compound, the EC50 in the data set on IL-2 lay within 100 to 3500 nM.

For `Cc1nc2cc(N)ccc2c(=O)n1C1CCC(=O)NC1=O` (centres unmarked) [3-(7-amino-2-methyl-4-oxo-4H-quinazolin-3-yl)-piperidine-2,6-dione], the EC50 with IL-2 lay in the range of 100 to 3500 nM. The IC50 with Namalwa AG4 cells lay in the range of 10 to 5500 nM.

With `Cc1nc2cc(Br)ccc2c(=O)n1C1CCC(=O)NC1=O` (centres unmarked) [3-(7-bromo-2-methyl-4-oxo-4H-quinazolin-3-yl)-piperidine-2,6-dione], in the data set on IL-2, the EC50 is 100 to 3500 nM. Besides, the IC50 with Namalwa AG4 cells lay within 10 to 5500 nM.

`Cc1nc2cc(Cl)ccc2c(=O)n1C1CCC(=O)NC1=O` (centres unmarked) [3-(7-chloro-2-methyl-4-oxo-4H-quinazolin-3-yl)-piperidine-2,6-dione] registered a melting point of 291 to 293 °C. The EC50 in the data set with IL-2 lay in the range of 100 to 3500 nM. Also, the IC50 in the data set on Namalwa AG4 cells lay within 10 to 5500 nM.

Turning to `Cc1nc2cc(F)ccc2c(=O)n1C1CCC(=O)NC1=O` (centres unmarked) [3-(7-fluoro-2-methyl-4-oxo-4H-quinazolin-3-yl)-piperidine-2,6-dione], the melting point lay within 243 to 245 °C. The EC50 in the data set on IL-2 fell in the range of 100 to 3500 nM. The IC50 in the data set on Namalwa AG4 cells was in the range of 10 to 5500 nM.
